Measured values reported in patent publication US10512626B2, “Compositions for use in treating glioblastoma” (PELOTON THERAPEUTICS, INC., priority 2015, dated 2019).
pEC50, pIC50: −log10 of the molar value.

Target: T1, HIF-2α HIS TAG-PASB Domain (Homo sapiens, UniProt Q99814)
T1 construct: 100 nM HIF-2α HIS TAG-PASB Domain
Assay: HIF-2α Scintillation Proximity Assay (SPA)
Assay type: binding
Details: displacement of tritiated probe Compound 183
Experimental: The total assay volume was about 100 μL in the following configuration: 2 μL compound in 100% DMSO, 88 μL buffer with protein and probe and 10 μL of SPA beads. […] The percent inhibition was determined and IC50 values were calculated using the Dotmatics system based on the following equation: % inhibition=[(high control−sample)/(high control−low control)]×100.

T1 sequence (Q99814 240-350 limits assumed): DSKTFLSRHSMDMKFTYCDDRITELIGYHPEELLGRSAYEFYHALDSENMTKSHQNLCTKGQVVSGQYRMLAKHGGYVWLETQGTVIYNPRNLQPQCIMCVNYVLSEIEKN

Compound | pIC50
CS(=O)(=O)c1ccc(Nc2cc(F)cc(C#N)c2)c2c1[C@H](O)C(F)(F)C2 [Compound 502] | < 6.00
O=S(=O)(c1ccc(O[C@H]2C[C@H](O)C2)c2c1[C@H](O)C(F)(F)C2)C(F)(F)F [Compound 644] | 6.00 to 6.60
FC(F)COc1ccc(C(F)(F)F)c2c1C[C@H](F)[C@H]2F [Compound 697] | 6.60 to 7.30
CS(=O)(=O)c1ccc(O[C@H]2C[C@H](C#N)C2)c2c1[C@H](O)C(F)(F)[C@@H]2F [Compound 760] | > 7.30

Test system: VEGF concentration in culture medium of 786-O cells
Assay: VEGF ELISA Assay
Assay type: cell-based
Details: Homo sapiens, 786-0
Experimental: Each concentration was plated in duplicate. About 20 hours later, medium was removed by suction and each well was supplied with 180 μL of growth medium. About 20 µl freshly-made 10× compound stocks were added to each well. […] The EC50 was calculated by GraphPad Prism using the dose-response-inhibition (four parameter) equation. The cell-seeded plate was then subjected to CellTiter-Glo luminescence cell viability assay (Promega) by adding 50 μL of Celltiter Glo reagent into each well and shaking the plate for 8 minutes at 550 rpm (Thermomixer R, Eppendorf) then the luminescence signal immediately read in a plate reader (3 second delay, 0.5 second/well integration time, Synergy 2 multi Detection Microplate reader).

Compound | pEC50
O=S(=O)(c1ccc(Oc2cc(F)cc(Cl)c2)c2c1[C@H](O)CC2)C(F)F [Compound 1] | 6.00 to 6.60
O=S(=O)(c1ccc(Oc2cc(F)cc(Cl)c2)c2c1C(O)CC2)C(F)F (stereo not shown) [Compound 17] | 6.60 to 7.30
O=S(=O)(c1ccc(Oc2cc(F)cc(Cl)c2)c(Cl)c1CO)C(F)F [Compound 41] | 6.00 to 6.60
N#Cc1ccc(Oc2cc(F)cc(F)c2)c2c1[C@H](O)C(F)(F)C2 [Compound 67] | 6.60 to 7.30
N#Cc1cc(F)cc(Oc2ccc(S(=O)(=O)C(F)F)c3c2CCC3O)c1 (stereo not shown) [Compound 78] | 6.00 to 6.60
O=S(=O)(c1ccc(Oc2cc(F)cc(Cl)c2)c(C(F)F)c1)C(F)(F)F [Compound 124] | 6.00 to 6.60
N#Cc1cc(F)cc(Oc2ccc(S(=O)(=O)C(F)F)c3c2CC[C@H]3O)c1 [Compound 155] | 6.60 to 7.30
CS(=O)(=O)c1ccc(Oc2cc(Cl)cc(C#N)c2)c2c1[C@H](O)C(F)(F)C2 [Compound 234] | 6.60 to 7.30
CS(=O)(=O)c1ccc(OC2CC(C#N)C2)c2c1[C@H](O)C(F)(F)[C@@H]2F (stereo partly shown) [Compound 760] | 6.60 to 7.30

Test system: 786-O-Hif-Luc cells (luciferase gene driven by multiple HIF responsive elements)
Assay: Luciferase Assay (HIF reporter)
Details: 24 h, read-out: Mean Luciferase EC50 (nM)
Experimental: A pool of infected cells were then selected against 2 μg/mL of puromycin (P8833, Sigma) for 10 days followed by limited dilution to select single clones.
Each concentration was tested in triplicate. After about 24 hours, luciferase activity was determined using ONE-Glo Luciferase Assay Reagent (E6110, Promega) following the manufacturer's recommended procedure. EC50 were calculated using Dotmatics software.

Compound | EC50 [nM]
C[C@H]1C[C@@H](O)c2c(S(=O)(=O)C(F)F)ccc(Oc3cc(F)cc(Cl)c3)c21 [Compound 7a] | 250 to 1000
O=S(=O)(c1ccc(Oc2cc(F)cc(Cl)c2)c(Cl)c1CO)C(F)F [Compound 41] | 250 to 1000
N#Cc1cc(F)cc(Oc2ccc(S(=O)(=O)C(F)(F)F)c3c2CC[C@H]3O)c1 [Compound 57] | 50 to 249
O=S(=O)(c1ccc(Oc2cc(F)cc(Cl)c2)c(C(F)F)c1)C(F)(F)F [Compound 124] | 250 to 1000
N#Cc1cc(F)cc(Oc2ccc(S(=O)(=O)C(F)F)c3c2CC[C@H]3O)c1 [Compound 155] | 50 to 249
N#Cc1cccc(Oc2ccc(S(=O)(=O)C(F)F)c3c2CC[C@H]3O)c1 [Compound 156] | 250 to 1000
CS(=O)(=O)c1ccc(Oc2cc(F)cc(C#N)c2)c2c1[C@H](O)C(F)(F)C2 [Compound 163, (S)-3-((2,2-Difluoro-1-hydroxy-7-(methylsulfonyl)-2,3-dihydro-1H-inden-4-yl)oxy)-5-fluorobenzonitrile] | < 50
CS(=O)(=O)c1ccc(Oc2cc(F)cc(C#N)c2)c2c1[C@H](N)C(F)(F)C2 [Compound 165] | 50 to 249
N#Cc1cc(Cl)cc(Oc2ccc(S(=O)(=O)CF)c3c2CC(F)(F)[C@H]3O)c1 [Compound 167] | < 50
CCS(=O)(=O)c1ccc(Oc2cc(F)cc(C#N)c2)c2c1[C@H](O)C(F)(F)C2 [Compound 206] | 50 to 249
CS(=O)(=O)c1ccc(Oc2cc(F)cc(C#N)c2)c2c1C(O)C(F)(F)C2 (stereo not shown) [Compound 223] | 50 to 249
CS(=O)(=O)c1ccc(Oc2cc(F)cc(C#N)c2)c2c1[C@@H](O)C(F)(F)C2 [Compound 226] | > 1000
[2H]C([2H])([2H])S(=O)(=O)c1ccc(Oc2cc(F)cc(C#N)c2)c2c1[C@]([2H])(O)C(F)(F)C2 [Compound 229] | < 50
CS(=O)(=O)c1ccc(Oc2cc(F)cc(C#N)c2)c2c1[C@H](O)[C@H](F)C2 [Compound 231] | < 50
CS(=O)(=O)c1ccc(Oc2cc(F)cc(C#N)c2)c2c1C(O)C(F)C2 (stereo not shown) [Compound 232] | < 50
CS(=O)(=O)c1ccc(Oc2cc(Cl)cc(C#N)c2)c2c1[C@H](O)C(F)(F)C2 [Compound 234] | < 50
N#Cc1cncc(Oc2ccc(S(=O)(=O)C(F)(F)F)c3c2CC(F)(F)[C@H]3O)c1 [Compound 235] | < 50
[2H][C@]1(O)c2c(S(C)(=O)=O)ccc(Oc3cc(F)cc(C#N)c3)c2CC1(F)F [Compound 247] | < 50
CNS(=O)(=O)c1ccc(Oc2cc(F)cc(F)c2)c2c1[C@H](O)C(F)(F)C2 [Compound 251] | 50 to 249
N#Cc1cc(F)cc(Oc2ccc(S(N)(=O)=O)c3c2CC(F)(F)[C@H]3O)c1 [Compound 252] | 50 to 249
CNS(=O)(=O)c1ccc(Oc2cc(F)cc(C#N)c2)c2c1[C@H](O)C(F)(F)C2 [Compound 254] | 50 to 249
NS(=O)(=O)c1ccc(Oc2cc(F)cc(F)c2)c2c1[C@H](O)C(F)(F)C2 [Compound 256] | < 50
CS(=O)(=O)c1ccc(Oc2cc(F)cc(C#N)c2)c2c1[C@H](O)[C@@H](F)C2 [Compound 271] | 250 to 1000
CS(=O)(=O)c1ccc(Oc2cc(F)cc(C#N)c2)c2c1[C@H](O)[C@H](F)[C@@H]2F [Compound 289, 3-[(1S,2S,3R)-2,3-difluoro-1-hydroxy-7-methylsulfonyl-indan-4-yl]oxy-5-fluoro-benzonitrile] | < 50
N#Cc1cc(F)cc(Oc2ccc(S(=O)(=O)C(F)(F)F)c3c2CC(F)(F)[C@H]3N)c1 [Compound 290] | 50 to 249
N#Cc1cc(F)cc(Oc2ccc(S(N)(=O)=O)c3c2[C@@H](F)C(F)(F)[C@H]3O)c1 [Compound 338] | < 50
N#Cc1cc(F)cc(Oc2ccc(S(N)(=O)=O)c3c2[C@H](F)C(F)(F)[C@H]3O)c1 [Compound 339] | 250 to 1000

Same assay, conditions: 24 h, read-out: Mean Luciferase EC50 (nM), 786-O-Hif-Luc cells, about 24 hours

Compound | EC50 [nM]
O=S(=O)(c1ccc(O[C@H]2C[C@H](O)C2)c2c1[C@H](O)C(F)(F)C2)C(F)(F)F [Compound 644] | 250 to 1000
FC(F)COc1ccc(C(F)(F)F)c2c1C[C@H](F)[C@H]2F [Compound 697] | 50 to 249
CS(=O)(=O)c1ccc(OC2CC(C#N)C2)c2c1[C@H](O)C(F)(F)[C@@H]2F (stereo partly shown) [Compound 760] | 50 to 249
